Experimental findings from ChEMBL document CHEMBL1124311, “Synthesis and antiallergy activity of 4-(diarylhydroxymethyl)-1-[3-(aryloxy)propyl]piperidines and structurally related compounds” (J Med Chem, 1989) are described below.

The subject of the first test is Rattus norvegicus. In words: Oral antiallergy activity in the passive foot anaphylaxis (PFA) model of rat, at a dose of 10 (mg/kg); Activity between positive and negative control groups. In kind it is functional, organism-based.
On to `OC(c1ccc(F)cc1)(c1ccc(F)cc1)C1CCN(CCCSc2ccccc2)CC1`, for which the PFA result was “Activity between positive and negative control groups”. The same measure, in the same setting: the entry for `Cc1ccccc1OCCCN1CCC(C(O)(c2ccc(F)cc2)c2ccc(F)cc2)CC1` is “Activity between positive and negative control groups”; for `CN(CCCN1CCC(C(O)(c2ccc(F)cc2)c2ccc(F)cc2)CC1)c1ccccc1` it is “Activity between positive and negative control groups”.

With `OC(c1ccc(F)cc1)(c1ccc(F)cc1)C1CCN(CCCC2OCOC2c2ccccc2)CC1` (stereo unspecified), the PFA result was “Activity between positive and negative control groups”.

Take `OC(CCCN1CCC(C(O)(c2ccc(F)cc2)c2ccc(F)cc2)CC1)c1ccccc1` (stereo unspecified): the PFA result was “Activity between positive and negative control groups”.

For `COc1cc(OCCCN2CCC(C(O)(c3ccc(F)cc3)c3ccc(F)cc3)CC2)ccc1C(C)=O`, the PFA entry is “Activity between positive and negative control groups”.

For `COc1cc(C(C)=O)ccc1OCCCCCN1CCC(C(O)(c2ccc(F)cc2)c2ccc(F)cc2)CC1`, the PFA entry is “Activity between positive and negative control groups”. For the compound `OC(c1ccc(F)cc1)(c1ccc(F)cc1)C1CCN(CCCNc2ccccc2)CC1`, the PFA result was “Activity between positive and negative control groups”. For the compound `OC(c1ccc(F)cc1)(c1ccc(F)cc1)C1CCN(CCCOc2ccccc2OCc2ccccc2)CC1`, the PFA entry is “Activity between positive and negative control groups”.

The test system of the next test is Rattus norvegicus. Put plainly: Oral antiallergy activity in the passive foot anaphylaxis (PFA) model of rat, at a dose of 3.16 (mg/kg); Activity between positive and negative control groups. Format: functional, organism-based.
For `COc1cc(C(C)=O)ccc1OCCCN1CCC(C(O)(c2ccc(F)cc2)c2ccccn2)CC1` (stereo unspecified), the PFA entry was “Activity between positive and negative control groups”.

For the compound `CN(CCCN1CCC(C(O)(c2ccc(F)cc2)c2ccc(F)cc2)CC1)c1ccccc1`, the PFA result was “Activity between positive and negative control groups”. Still for that read-out and setting: the value for `OC(CCCN1CCC(C(O)(c2ccc(F)cc2)c2ccc(F)cc2)CC1)c1ccccc1` (stereo unspecified) was “Activity between positive and negative control groups”. Consider `COc1cc(C(C)=O)ccc1OCCCN1CCC(C(OC)(c2ccccc2)c2ccccc2)CC1`, for which the PFA result is “Activity between positive and negative control groups”. `COc1cc(C(C)=O)ccc1OCCCCCN1CCC(C(O)(c2ccc(F)cc2)c2ccc(F)cc2)CC1`: the PFA result was “Activity between positive and negative control groups”. In the case of `OC(c1ccc(F)cc1)(c1ccc(F)cc1)C1CCN(CCCNc2ccccc2)CC1`, the PFA entry is “Activity between positive and negative control groups”.

Another test deals with Rattus norvegicus. Put plainly: Oral antiallergy activity in the passive foot anaphylaxis (PFA) model of rat, at a dose of 10 (mg/kg); not significantly different from negative control group. Format: functional, organism-based.
Consider `OC(c1ccc(F)cc1)(c1ccc(F)cc1)C1CCN(CCCOc2ccc(F)cc2)CC1`, for which the PFA result was “Not significantly different from negative control group”.

On to `N#Cc1ccc(OCCCN2CCC(C(O)(c3ccc(F)cc3)c3ccc(F)cc3)CC2)cc1`, for which the PFA result is “Not significantly different from negative control group”.

For `COc1cc(C(C)=O)ccc1OCCCN1CCCC(CC(O)(c2ccc(F)cc2)c2ccc(F)cc2)C1` (stereo unspecified), the PFA result is “Not significantly different from negative control group”. In the case of `COc1cc(C(C)=O)ccc1OCCCN1CCC(C(O)(c2ccc(C)cc2)c2ccc(C)cc2)CC1`, the PFA entry is “Not significantly different from negative control group”. Consider `COc1cc(C(C)=O)ccc1OCCCN1CCCCC1`, for which the PFA result is “Not significantly different from negative control group”. Take `COc1cc(C(C)=O)ccc1OCCCN1CCC(C(O)(c2ccc(Cl)cc2)c2ccc(Cl)cc2)CC1`: the PFA result was “Not significantly different from negative control group”. As for `COc1cc(C(C)=O)ccc1OCCCN1CCC(C(O)(c2ccccc2)c2cccc(C(F)(F)F)c2)CC1` (stereo unspecified), the PFA result is “Not significantly different from negative control group”. Turning to `COc1cc(C(C)=O)ccc1OCCCN1CCC(C(C(N)=O)(c2ccccc2)c2ccccc2)CC1`, the PFA entry is “Not significantly different from negative control group”. For `OC(c1ccc(F)cc1)(c1ccc(F)cc1)C1CCN(CCCOc2ccc(Cl)cc2)CC1`, the PFA entry is “Not significantly different from negative control group”. On to `OC(c1ccc(F)cc1)(c1ccc(F)cc1)C1CCN(CCCOc2ccc(-c3ccccc3)cc2)CC1`, for which the PFA result was “Not significantly different from negative control group”. Same read-out and setting: the value for `COc1cc(C(C)=O)ccc1OCCCN1CCC(C(O)(c2cccc(F)c2)c2cccc(F)c2)CC1` was “Not significantly different from negative control group”.

With `COc1cc(C(C)=O)ccc1OCCCN1CCC(Cc2ccccc2)CC1`, the PFA entry is “Not significantly different from negative control group”. The same measure, in the same setting: the entry for `COc1cc(C(C)=O)ccc1OCCCN1CCC(c2ccccc2)CC1` is “Not significantly different from negative control group”. For `COc1cc(C(C)=O)ccc1OCCCN1CCN(Cc2ccccc2)CC1`, the PFA result was “Not significantly different from negative control group”. Same read-out and setting: the value for `O=S(=O)(CCCN1CCC(C(O)(c2ccc(F)cc2)c2ccc(F)cc2)CC1)c1ccccc1` was “Not significantly different from negative control group”; that for `COc1cc(C(C)=O)ccc1OCCCN1CCC(C(O)(c2ccc(F)cc2)c2ccc(F)cc2)C1` (stereo unspecified) was “Not significantly different from negative control group”; that for `COc1cc(C(C)=O)ccc1OCCCN1CCC(C(O)(c2ccc(F)c(F)c2)c2ccc(F)c(F)c2)CC1` was “Not significantly different from negative control group”. On to `COc1cc(C(C)=O)ccc1OCCCN1CCC(CC(O)(c2ccc(F)cc2)c2ccc(F)cc2)C1` (stereo unspecified), for which the PFA entry was “Not significantly different from negative control group”. As for `O=C(CCCN1CCC(C(O)(c2ccc(F)cc2)c2ccc(F)cc2)CC1)c1ccccc1`, the PFA entry is “Not significantly different from negative control group”. With `COc1cc(C(C)=O)ccc1OCCCN1CCC(CC(O)(c2ccc(F)cc2)c2ccc(F)cc2)CC1`, the PFA entry is “Not significantly different from negative control group”. With `COc1cc(C(C)=O)ccc1OCCCN1CCC(C(C#N)(c2ccccc2)c2ccccc2)CC1`, the PFA result is “Not significantly different from negative control group”. For the compound `CCN(CCCOc1ccc(C(C)=O)cc1OC)CCCC(O)(c1ccc(F)cc1)c1ccc(F)cc1`, the PFA result is “Not significantly different from negative control group”. The same measure, in the same setting: the entry for `CC(C)(C)c1ccc(OCCCN2CCC(C(O)(c3ccc(F)cc3)c3ccc(F)cc3)CC2)cc1` is “Not significantly different from negative control group”; for `COc1cc(C(C)=O)ccc1OCCCN1CCC(C(O)(c2ccccc2)C2CCCCC2)CC1` (stereo unspecified) it is “Not significantly different from negative control group”; for `CCOC(=O)C(=O)Nc1ccc(OCCCN2CCC(C(O)(c3ccc(F)cc3)c3ccc(F)cc3)CC2)cc1` it is “Not significantly different from negative control group”. As for `COc1cc(C(C)=O)ccc1OCCCN1CCC(C(O)(Cc2ccc(F)cc2)c2ccc(F)cc2)CC1` (stereo unspecified), the PFA entry was “Not significantly different from negative control group”. With `COc1cc(C(C)=O)ccc1OCCCCCCN1CCC(C(O)(c2ccc(F)cc2)c2ccc(F)cc2)CC1`, the PFA result is “Not significantly different from negative control group”. With `COc1ccc(C(O)(c2ccc(OC)cc2)C2CCN(CCCOc3ccc(C(C)=O)cc3OC)CC2)cc1`, the PFA result is “Not significantly different from negative control group”. In the case of `COC(=O)c1ccc(OCCCN2CCC(C(O)(c3ccccc3)c3ccccc3)CC2)cc1`, the PFA entry is “Not significantly different from negative control group”. As to `COc1cc(C(C)=O)ccc1OCCCN1CCN(C(=O)c2ccccc2)CC1`, the PFA entry is “Not significantly different from negative control group”. Take `COc1cc(C(C)=O)ccc1OCCCN1CCCC(C(O)(c2ccc(F)cc2)c2ccc(F)cc2)C1` (stereo unspecified): the PFA entry was “Not significantly different from negative control group”.
